The values that follow are results of earlier work, collected in paper PMC11643494, “Structure–Activity Relationship Studies in a Series of 2-Aryloxy-N-(pyrimidin-5-yl)acetamide Inhibitors of SLACK Potassium Channels” (Molecules, 2024).

On the set-up of data set [1]: method as in PMID 38782404. As to conditions: cited from earlier work.
In another data set the test system is WT SLICK. Also on record: method as in PMID 38782404. The settings on record: read-out: IC50 versus WT SLICK; cited from earlier work.
Details of data set [2]: method as in PMID 38782404. As to conditions: human liver microsomes; cited from earlier work. On the technique in general: Liver microsomes are a subcellular fraction often used to study metabolism.
The next data set has as its system G288S SLACK. Also on record: method as in PMID 38782404. The settings on record: read-out: IC50 versus G288S SLACK; cited from earlier work.
Another data set relates to A934T SLACK. Also on record: method as in PMID 38782404. As to conditions: read-out: IC50 versus A934T SLACK; cited from earlier work.
The next data set deals with hERG. Also noted: method as in PMID 38782404. The settings on record: cited from earlier work.
A further data set relates to WT SLACK. Also on record: method as in PMID 38782404. The settings on record: patch clamp; read-out: IC50 versus WT SLACK; cited from earlier work.
The subject of the next data set is KV7.2. Also noted: method as in PMID 38782404. As to conditions: cited from earlier work.

As to `O=S(=O)(Nc1ccc2c(c1)CCN2Cc1ccc(C(F)(F)F)cc1C(F)(F)F)C1CCCCC1` [Compound 9], in data set [1], the “plasma protein binding, result in words” value is given as “highly bound to plasma proteins”. Further, the 50% inhibitory concentration (IC50) in the data set with WT SLICK is 1300 nM; with G288S SLACK it was 300 nM; in the data set on A934T SLACK, 280 nM; in the data set with WT SLACK, 200 nM. Further, the “metabolic stability (clearance), result in words” value in data set [2] was “low clearance compound”. In addition, the “activity on hERG channels, result in words” value with hERG was “no activity”. In addition, in the data set with KV7.2, the “activity on KV7.2 channels, result in words” value is given as “no activity”.

In general, IC50 refers to the concentration that gives 50% inhibition.
